The results in this text go back to the METLIN SMRT retention time set (Domingo-Almenara et al. 2019).

Each structure is given as a SMILES string.

This data set in a line: gradient 5% acetonitrile 3 min, to 50% in 2 min, to 85% in 15 min, held 3 min, 100 µL/min. As to conditions: column: Zorbax Extend-C18 2.1 x 50 mm; eluents: water / acetonitrile, 0.1% formic acid. The procedure, abridged: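 Over 3 months, pure standards in mixtures of ~100 molecules were run by HPLC coupled to a quadrupole time-of-flight mass spectrometer in positive and negative ionization mode. The column was a Zorbax Extend-C18 (2.1 × 50 mm, 1.8 μm) at 100 μL/min, eluted with water and acetonitrile each holding 0.1% formic acid, with 40 μL dead and 900 μL dwell volumes. Retention time was determined from adduct peaks chosen by software and checked manually.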
As for `CC1CCCCN1S(=O)(=O)c1ccc2c(c1)CCC(=O)N2CC(=O)NCc1ccccc1` (centres undefined), the RP-LC retention time is 876 s.

The compound `CNC(=O)[C@@H]1C[C@H](Oc2ccccc2)CN1C(=O)c1n[nH]c2ccccc12` displayed an RP-LC retention time of 706 s.

As to `Cc1ccc(C)c(CN2CCC(CNC(=O)C3CCCN(c4cc(=O)n(C)c(=O)n4C)C3)CC2)c1` (centres undefined), the RP-LC retention time came to 599 s.

Regarding `Cc1ccc(-c2nc(-c3ccnc(N4CCOCC4)c3)no2)cc1F`, the RP-LC retention time was found to be 1100 s.

`Cc1nnc(-c2coc(S(=O)(=O)N3CCN(CC(C)C)CC3)c2)o1` displayed an RP-LC retention time of 587 s.

As for `CC(C)CCNC(=O)c1cc2n(n1)CC(C)(C(=O)NCc1ccccc1)N(C)C2=O` (centres undefined), the RP-LC retention time worked out at 758 s.

The compound `Cc1cc(-c2ccc(S(=O)(=O)N3CCC(C(=O)NCC4CC4)CC3)o2)n[nH]1` had an RP-LC retention time of 702 s.

The compound `COCCCNCc1ccc(-c2ccc(C(C)O)cc2)o1` (centres undefined) had an RP-LC retention time of 600 s.

Regarding `COC(=O)c1ccc(NC(=O)N(Cc2cc(=O)[nH]c3ccccc23)CC(C)C)cc1`, the RP-LC retention time was 830 s.

`COc1ccccc1-c1nnc(-c2cc(S(=O)(=O)N3CCCC3)ccc2Cl)o1` gave an RP-LC retention time of 951 s.

The compound `CCn1cc(-c2nc(C)c(C(=O)Nc3ccccc3)s2)c2cccnc21` yielded an RP-LC retention time of 965 s.

Compound `Cc1nc2ccn(Cc3ccco3)c(=O)c2cc1C(=O)NCCc1c[nH]c2ccccc12` gave an RP-LC retention time of 768 s.

In the case of `CCN(CC)C(=O)c1c(C)sc2ccn(C)c(=O)c12`, the RP-LC retention time worked out at 639 s.

With `CCN1C=C(C(=O)OCc2c(C)noc2C)C(C)=NS1(=O)=O`, the RP-LC retention time came out at 831 s.

The compound `O=c1c2c(CO)c(-c3ccccc3)nn2ccn1CCc1ccccc1` displayed an RP-LC retention time of 926 s.

With `O=c1c2sccc2n(Cc2nc(-c3ccc(F)cc3)no2)c(=O)n1Cc1ccccc1Cl`, the RP-LC retention time amounted to 1160 s.

Regarding `COc1cccc(-c2noc(NC3CC3)n2)c1`, the RP-LC retention time worked out at 787 s.

Regarding `COc1ccc(NC(=O)N2CCC(n3cnc4cc(F)ccc4c3=O)CC2)c(OC)c1`, the RP-LC retention time was 732 s.

In turn, `CCN(CC)C(=O)c1ccc(-c2nc3cc(NS(=O)(=O)c4ccc(F)c(F)c4)ccc3n2C)cc1` displayed an RP-LC retention time of 724 s.

`Cc1oc(-c2ccc(NC(=O)c3cccs3)cc2)nc1Cn1cccn1` had an RP-LC retention time of 836 s.

In the case of `CCC(=O)NCc1csc(C2CCCN(C(=O)CC(C)(C)C)C2)n1` (centres undefined), the RP-LC retention time was 703 s.

Take `Cc1nn(C(C)C(=O)NCCCN(C)Cc2ccccc2)c(=O)c2nn(-c3ccccc3)c(C)c12` (centres undefined): the RP-LC retention time was found to be 678 s.

Take `CCC(C)C(=O)NCCc1c[nH]c2cc(OC)ccc12` (centres undefined): the RP-LC retention time was determined as 728 s.

`Cc1cnc(-c2ccncc2)n1C1CCN(C(=O)C2(C)CCCCC2)C1` (centres undefined) had an RP-LC retention time of 626 s.

`Cc1ccc2[nH]cc(CCN3CC(C(=O)Nc4ccccc4C)CC3=O)c2c1` (centres undefined): the RP-LC retention time turned out to be 798 s.

The compound `CCN(CC)CCNC(=O)CN1C(=O)C2CCCCN2c2ccc(C(=O)N3CCCC3)cc21` (centres undefined) displayed an RP-LC retention time of 614 s.

In turn, `COc1ccc(C(=O)N2CCC3(CC2)NC(=O)c2ccc(Cl)cc2N3)cc1` gave an RP-LC retention time of 735 s.

`O=S(=O)(c1ccc(F)cc1)N1CCCC(c2nnnn2-c2ccccc2)C1` (centres undefined) showed an RP-LC retention time of 934 s.

With `COc1cccc2c(=O)c(NC(=O)N3CCCC(C(N)=O)C3)c[nH]c12` (centres undefined), the RP-LC retention time is 580 s.

For `CCCn1cc(CCNS(=O)(=O)c2ccc(C3CCCCC3)cc2)c2cccnc21`, the RP-LC retention time came to 1210 s.

`CCn1cc(-c2nc(C)c(C(=O)NCc3cccnc3)s2)c2cccnc21` gave an RP-LC retention time of 629 s.

Regarding `CCCCn1nnc(NCc2ccc(-c3ccc(Cl)cc3Cl)o2)n1`, the RP-LC retention time amounted to 1280 s.

Take `CN1c2cc(C(=O)NCc3ccc(F)c(Cl)c3)ccc2C(=O)N2CCCCC21` (centres undefined): the RP-LC retention time turned out to be 860 s.

In the case of `O=C(NCCCN1CCCC1=O)c1ccc2ncnc(N3CCCC3)c2c1`, the RP-LC retention time amounted to 570 s.

For `CCC(=O)N1CCc2cc(C(=O)NCC3CCCO3)ccc21` (centres undefined), the RP-LC retention time came to 642 s.

Regarding `O=C(c1cc2c(s1)-c1ccccc1S(=O)(=O)C2)N1CCN(c2ccccn2)CC1`, the RP-LC retention time stood at 605 s.

Regarding `Cc1cc(C)cc(NS(=O)(=O)c2cc(-c3[nH]ncc3C(=O)N3CCCCC3)oc2C)c1`, the RP-LC retention time stood at 807 s.

As for `Cc1nc2cc(-c3noc(COc4ccc(Cl)cc4)n3)ccc2o1`, the RP-LC retention time worked out at 1060 s.

`O=S(=O)(c1cc(-c2noc(C3CC3)n2)cs1)N1CCN(c2ccccn2)CC1`: the RP-LC retention time was 719 s.

The compound `O=c1c2cc3c(cc2nc(SCc2nc(-c4ccccc4)no2)n1-c1ccc(F)cc1)OCO3` returned an RP-LC retention time of 1140 s.

Take `CC(C)C(=O)NCc1csc(C2CCCN(C(=O)C3CCC3)C2)n1` (centres undefined): the RP-LC retention time turned out to be 694 s.

`Cc1oc2ncnc(N3CCCC(C(=O)Nc4cccc(Cl)c4)C3)c2c1C` (centres undefined) had an RP-LC retention time of 1050 s.

`CC(C)C(=O)Nc1cccc(N2CC(C(=O)Nc3ccc(C(C)C)cc3)CC2=O)c1` (centres undefined): the RP-LC retention time was 886 s.

Take `COCc1cc(=O)n(Cc2ccccc2F)c(N2CCCC2)n1`: the RP-LC retention time turned out to be 790 s.

The compound `N#CSc1ccc(NC(=O)c2ccc(-n3cnnn3)cc2)cc1` gave an RP-LC retention time of 754 s.

`CCOc1nc2ccccc2nc1N1CCCC(C(=O)N2CCSCC2)C1` (centres undefined): the RP-LC retention time turned out to be 1150 s.

With `CCn1cc(C)c(C(=O)O)c1CC(=O)NCc1cccnc1`, the RP-LC retention time was determined as 584 s.

For the compound `CN1C(=O)c2cccnc2Sc2cc(NC(=O)c3ccc(Br)o3)ccc21`, the RP-LC retention time is 788 s.

`O=C(NC1CCCCCC1)C1CCCN(S(=O)(=O)c2c[nH]c(C(=O)N3CCCCCC3)c2)C1` (centres undefined) registered an RP-LC retention time of 926 s.

`Cc1ccc(C2CC(=O)c3cnc(Nc4nc(C)c5cc(C)c(C)cc5n4)nc3C2)cc1` (centres undefined): the RP-LC retention time was found to be 862 s.

`O=C(NCCn1ncccc1=O)Nc1ccccc1C(F)(F)F`: the RP-LC retention time amounted to 642 s.

Compound `CCCNC(=O)C1CCN(c2ccc(SCC(=O)Nc3ccc(C)cc3F)nn2)CC1` displayed an RP-LC retention time of 679 s.

As to `COCCn1cc(C(=O)NC2CCCC2)c2nn(-c3ccccc3)c(=O)c-2c1`, the RP-LC retention time worked out at 843 s.

`CNC(=O)C1CCCN(c2nc3ncn(CC(=O)Nc4cccc(C(C)C)c4)c(=O)c3s2)C1` (centres undefined) returned an RP-LC retention time of 711 s.

`CCN1CCCn2cc(S(=O)(=O)Nc3cc(OC)cc(OC)c3)cc2C1=O` showed an RP-LC retention time of 704 s.

Compound `COc1cc(-c2nc3cc(C)ccn3c2Nc2ccc3c(c2)OCCO3)ccc1O` gave an RP-LC retention time of 636 s.

Take `Cn1cc(-c2cc3n(n2)CCCN3C(=O)CCC(=O)N2CCN(c3ccccc3)CC2)c2ccccc21`: the RP-LC retention time is 840 s.

The compound `COCC(=O)Nc1ccc2c(c1)N(C(=O)c1cccs1)CCC2` registered an RP-LC retention time of 758 s.

`Cc1cc(C)c(C)c(S(=O)(=O)NCC2(c3cccs3)CCOCC2)c1C` showed an RP-LC retention time of 1050 s.

As to `Cc1cc(C)cc(NC(=O)N2CCC(c3cc(N)on3)CC2)c1`, the RP-LC retention time came to 728 s.

Consider `COc1cccc(-c2nc3cnccn3c2NCCC(=O)Nc2ccc3c(c2)OCCO3)c1`, for which the RP-LC retention time was 672 s.

Take `CC1(C(=O)NCc2ccc(F)cc2)CCN(S(=O)(=O)c2ccc(Br)s2)CC1`: the RP-LC retention time came to 1010 s.

The compound `COc1cc2nc(C(=O)N3CCCCC3)cc(Nc3cc(C)cc(C)c3)c2cc1OC` registered an RP-LC retention time of 760 s.

As to `Cc1nc(OCC(=O)N2CCCCCC2)c2c(-c3ccc(F)cc3)noc2n1`, the RP-LC retention time is 1100 s.

Consider `CCN1CCN(C(=O)CC2COc3ccc(Cl)cc3N2Cc2ccccc2)CC1` (centres undefined), for which the RP-LC retention time was 730 s.

The compound `O=C(NCC(O)Cc1ccccc1)c1c(F)cccc1F` (centres undefined) displayed an RP-LC retention time of 678 s.

On to `O=S(=O)(c1ccc(Cl)cc1)c1ccc(N2CCN(c3ncccn3)CC2)nn1`, for which the RP-LC retention time amounted to 884 s.

Consider `Cn1nc(-c2nc(C3CC3)no2)c2c1CCN(C(=O)c1ccc(OC(F)(F)F)cc1)C2`, for which the RP-LC retention time was found to be 937 s.

Turning to `Cc1ccccc1NC(=O)N1CCN(c2ccc(=O)n(-c3ccccc3)n2)CC1`, the RP-LC retention time stood at 744 s.

For `CN1C(=O)[C@H]2CN(Cc3ccc(F)cc3F)C[C@H]2C1=O`, the RP-LC retention time stood at 587 s.

In the case of `CCn1cc(C(=O)NCc2ccc(C)cc2)c2cccnc21`, the RP-LC retention time came to 811 s.

Turning to `Fc1ccc(-c2nnc(Cc3nc(-c4cccc(Cl)c4)no3)o2)cc1`, the RP-LC retention time was 1070 s.

`CC(Oc1ccc(=O)n(-c2ccc(F)cc2)n1)C(=O)Nc1cccc(Cl)c1` (centres undefined) had an RP-LC retention time of 802 s.

Take `CCN1CCn2cc(S(=O)(=O)N3CCN(c4ccccc4F)CC3)cc2C1=O`: the RP-LC retention time was found to be 826 s.

Compound `Cc1ccc(CNC(=O)C2(C)CCCN(C(=O)Nc3cccc(C)c3)C2)cc1` (centres undefined) had an RP-LC retention time of 967 s.

In turn, `COC(=O)c1ncoc1-c1ccccc1C(=O)N1CCCC1` had an RP-LC retention time of 643 s.

On to `Cc1ccccc1NC(=O)c1c(NC(=O)CCC(=O)O)sc2c1CCCC2`, for which the RP-LC retention time turned out to be 939 s.

Consider `Cc1ccc(-c2ccc(-n3nc(C)c(S(=O)(=O)N4CCCCC4)c3C)nn2)cc1`, for which the RP-LC retention time was found to be 1190 s.

In the case of `COc1ccc(NC(=O)N2c3ccccc3CC2c2nc(C(C)C)no2)cc1OC` (centres undefined), the RP-LC retention time was 935 s.
